Laboratory results as given in patent publication US8178570B2, “Tie-2 modulators and methods of use” (Exelixis, Inc., priority 2003, dated 2012).

molecular target: Tie-2 (Homo sapiens, UniProt Q02763); test: Tie-2 tyrosine kinase activity: kinase-dependent ATP consumption (pEY substrate, luciferase/luciferin chemiluminescence) or 33P-ATP incorporation into substrate; assay type: biochemical; settings: Tie-2 (human enzyme) inhibition, Table 2, class symbols A-D
In short: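 Values are IC50 categories: A below 50 nM, B above 50 to 1000 nM, C above 1000 to below 10,000 nM, D 10,000 nM or more. They were measured by 33P-ATP phosphate transfer onto a generic substrate bound to the plate (scintillation), or by luminescent luciferase detection of ATP used with pEY.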

Sequence of Tie-2 (Q02763 23-1124): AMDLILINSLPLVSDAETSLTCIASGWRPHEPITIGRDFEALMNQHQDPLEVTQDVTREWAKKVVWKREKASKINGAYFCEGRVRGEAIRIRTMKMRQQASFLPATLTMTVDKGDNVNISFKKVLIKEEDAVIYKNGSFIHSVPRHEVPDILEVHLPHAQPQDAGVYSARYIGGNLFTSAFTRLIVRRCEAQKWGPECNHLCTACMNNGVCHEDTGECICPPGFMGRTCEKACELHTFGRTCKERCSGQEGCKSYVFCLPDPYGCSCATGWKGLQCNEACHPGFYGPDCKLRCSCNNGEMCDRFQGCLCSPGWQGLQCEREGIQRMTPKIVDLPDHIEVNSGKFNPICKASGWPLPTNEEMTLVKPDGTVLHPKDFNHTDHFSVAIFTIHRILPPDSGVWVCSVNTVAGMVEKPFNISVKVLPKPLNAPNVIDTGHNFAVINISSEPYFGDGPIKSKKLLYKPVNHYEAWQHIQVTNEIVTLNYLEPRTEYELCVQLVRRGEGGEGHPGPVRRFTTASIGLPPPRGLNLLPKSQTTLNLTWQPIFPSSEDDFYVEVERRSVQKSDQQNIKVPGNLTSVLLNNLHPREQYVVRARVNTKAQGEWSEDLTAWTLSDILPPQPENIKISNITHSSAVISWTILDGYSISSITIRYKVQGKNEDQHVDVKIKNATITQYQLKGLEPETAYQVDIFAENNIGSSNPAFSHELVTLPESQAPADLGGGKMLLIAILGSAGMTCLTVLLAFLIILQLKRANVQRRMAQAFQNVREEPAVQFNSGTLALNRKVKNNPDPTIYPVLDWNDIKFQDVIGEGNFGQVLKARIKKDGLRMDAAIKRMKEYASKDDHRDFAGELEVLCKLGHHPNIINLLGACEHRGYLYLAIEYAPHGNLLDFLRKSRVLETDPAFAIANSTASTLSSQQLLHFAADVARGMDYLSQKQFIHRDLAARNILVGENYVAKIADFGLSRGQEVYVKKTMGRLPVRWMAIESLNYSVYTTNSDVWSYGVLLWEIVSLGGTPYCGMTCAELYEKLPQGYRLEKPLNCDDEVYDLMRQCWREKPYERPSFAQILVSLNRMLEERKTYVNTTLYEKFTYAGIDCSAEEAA

Structure (SMILES) | IC50 [nM]
COc1ccc(-c2nc(-c3ccncc3)nn2CCN(C(=O)Nc2ccc(F)c(F)c2)C2CCCC2)cc1Cl [Entry 159, N-(2-{5-[3-chloro-4-(methyloxy)phenyl]-3-pyridin-4-yl-1H-1,2,4-triazol-1-yl}ethyl)-N-cyclopentyl-N′-(3,4-difluorophenyl)urea] | 1000 to 10000
Cc1nc(-c2ccncc2)nn1CCN(CCN1CCOCC1)C(=O)Cc1cccc2ccccc12 [Entry 160, N-[2-(5-methyl-3-pyridin-4-yl-1H-1,2,4-triazol-1-yl)ethyl]-N-(2-morpholin-4-ylethyl)-2-naphthalen-1-ylacetamide] | ≥ 10000
CNc1nccc(-c2nc(C)n(CCN(C(=O)Cc3cccc4ccccc34)C3CCCC3)n2)n1 [Entry 161, N-cyclopentyl-N-(2-{5-methyl-3-[2-(methylamino)pyrimidin-4-yl]-1H-1,2,4-triazol-1-yl}ethyl)-2-naphthalen-1-ylacetamide] | ≥ 10000
Cc1nc(-c2ccc3nsnc3c2)nn1CCN(C(=O)Cc1cccc2ccccc12)C1CCCC1 [Entry 162, N-{2-[3-(2,1,3-benzothiadiazol-5-yl)-5-methyl-1H-1,2,4-triazol-1-yl]ethyl}-N-cyclopentyl-2-naphthalen-1-ylacetamide] | 50 to 1000
Cc1nc(-c2ccnc(N3CCOCC3)c2)nn1CCN(C(=O)Cc1cccc2ccccc12)C1CCCC1 [Entry 163, N-cyclopentyl-N-{2-[5-methyl-3-(2-morpholin-4-ylpyridin-4-yl)-1H-1,2,4-triazol-1-yl]ethyl}-2-naphthalen-1-ylacetamide] | 1000 to 10000
Cc1nc(-c2ccnc(NCCN(C)C)c2)nn1CCN(C(=O)Cc1cccc2ccccc12)C1CCCC1 [Entry 164, N-cyclopentyl-N-{2-[3-(2-{[2-(dimethylamino)ethyl]amino}pyridin-4-yl)-5-methyl-1H-1,2,4-triazol-1-yl]ethyl}-2-naphthalen-1-ylacetamide] | 50 to 1000
Cc1nc(-c2ccnc(Nc3ccccc3)c2)nn1CCN(C(=O)Cc1cccc2ccccc12)C1CCCC1 [Entry 165, N-cyclopentyl-N-(2-{5-methyl-3-[2-(phenylamino)pyridin-4-yl]-1H-1,2,4-triazol-1-yl}ethyl)-2-naphthalen-1-ylacetamide] | 50 to 1000
CCNc1cc(-c2nc(C)n(CCN(C(=O)Cc3cccc4ccccc34)C3CCCC3)n2)ccn1 [Entry 166, N-cyclopentyl-N-(2-{3-[2-(ethylamino)pyridin-4-yl]-5-methyl-1H-1,2,4-triazol-1-yl}ethyl)-2-naphthalen-1-ylacetamide] | < 50
CNc1cc(-c2nc(C)n(CCN(C(=O)Cc3cccc4ccccc34)C3CCCC3)n2)ccn1 [Entry 167, N-cyclopentyl-N-(2-{5-methyl-3-[2-(methylamino)pyridin-4-yl]-1H-1,2,4-triazol-1-yl}ethyl)-2-naphthalen-1-ylacetamide] | < 50
Cc1nc(-c2ccncc2)nn1CCN(C(=O)Cc1cccc2ccccc12)C1CC1 [Entry 168, N-cyclopropyl-N-[2-(5-methyl-3-pyridin-4-yl-1H-1,2,4-triazol-1-yl)ethyl]-2-naphthalen-1-ylacetamide] | 50 to 1000
Cc1nc(-c2ccncc2)nn1CCN(CCN1CCCC1)C(=O)Cc1cccc2ccccc12 [Entry 169, N-[2-(5-methyl-3-pyridin-4-yl-1H-1,2,4-triazol-1-yl)ethyl]-2-naphthalen-1-yl-N-(2-pyrrolidin-1-ylethyl)acetamide] | ≥ 10000
Cc1nc(-c2ccncc2)nn1CCN(CCN(C)C)C(=O)Cc1cccc2ccccc12 [Entry 170, N-[2-(dimethylamino)ethyl]-N-[2-(5-methyl-3-pyridin-4-yl-1H-1,2,4-triazol-1-yl)ethyl]-2-naphthalen-1-ylacetamide] | 1000 to 10000
Cc1nc(-c2ccncc2)nn1CCN(C(=O)Cc1cccc2ccccc12)C1CCOCC1 [Entry 171, N-[2-(5-methyl-3-pyridin-4-yl-1H-1,2,4-triazol-1-yl)ethyl]-2-naphthalen-1-yl-N-(tetrahydro-2H-pyran-4-yl)acetamide] | 50 to 1000
Cc1nc(-c2ccnc(NCc3ccccc3)c2)nn1CCN(C(=O)Cc1cccc2ccccc12)C1CCCC1 [Entry 172, N-cyclopentyl-N-[2-(5-methyl-3-{2-[(phenylmethyl)amino]pyridin-4-yl}-1H-1,2,4-triazol-1-yl)ethyl]-2-naphthalen-1-ylacetamide] | 50 to 1000
CCCCNc1cc(-c2nc(C)n(CCN(C(=O)Cc3cccc4ccccc34)C3CCCC3)n2)ccn1 [Entry 173, N-(2-{3-[2-(butylamino)pyridin-4-yl]-5-methyl-1H-1,2,4-triazol-1-yl}ethyl)-N-cyclopentyl-2-naphthalen-1-ylacetamide] | < 50
Cc1nc(-c2ccnc(NCCN3CCOCC3)c2)nn1CCN(C(=O)Cc1cccc2ccccc12)C1CCCC1 [Entry 174, N-cyclopentyl-N-[2-(5-methyl-3-{2-[(2-morpholin-4-ylethyl)amino]pyridin-4-yl}-1H-1,2,4-triazol-1-yl)ethyl]-2-naphthalen-1-ylacetamide] | < 50
COCCNc1cc(-c2nc(C)n(CCN(C(=O)Cc3cccc4ccccc34)C3CCCC3)n2)ccn1 [Entry 175, N-cyclopentyl-N-{2-[5-methyl-3-(2-{[2-(methyloxy)ethyl]amino}pyridin-4-yl)-1H-1,2,4-triazol-1-yl]ethyl}-2-naphthalen-1-ylacetamide] | < 50
Cc1nc(-c2ccnc(N)c2)nn1CCN(C(=O)Cc1cccc2ccccc12)C1CCCC1 [Entry 176, N-{2-[3-(2-aminopyridin-4-yl)-5-methyl-1H-1,2,4-triazol-1-yl]ethyl}-N-cyclopentyl-2-naphthalen-1-ylacetamide] | < 50
Cc1nc(-c2ccncc2)nn1CCN(C(=O)Cc1cccc2ccccc12)C(C)C [Entry 177, N-(1-methylethyl)-N-[2-(5-methyl-3-pyridin-4-yl-1H-1,2,4-triazol-1-yl)ethyl]-2-naphthalen-1-ylacetamide] | < 50
Cc1nc(-c2ccncc2)nn1CCN(CCN1CCCCC1)C(=O)Cc1cccc2ccccc12 [Entry 178, N-[2-(5-methyl-3-pyridin-4-yl-1H-1,2,4-triazol-1-yl)ethyl]-2-naphthalen-1-yl-N-(2-piperidin-1-ylethyl)acetamide] | ≥ 10000
Cc1nc(-c2ccncc2)nn1CCN(C(=O)Cc1cccc2ccccc12)C1CCCCC1 [Entry 179, N-cyclohexyl-N-[2-(5-methyl-3-pyridin-4-yl-1H-1,2,4-triazol-1-yl)ethyl]-2-naphthalen-1-ylacetamide] | < 50
Cc1nc(-c2ccncc2)nn1CCN(CC1CCCO1)C(=O)Cc1cccc2ccccc12 (centres unmarked) [Entry 180, N-[2-(5-methyl-3-pyridin-4-yl-1H-1,2,4-triazol-1-yl)ethyl]-2-naphthalen-1-yl-N-(tetrahydrofuran-2-ylmethyl)acetamide] | 50 to 1000
Cc1nc(-c2ccnc(NC3CCCNC3)c2)nn1CCN(C(=O)Cc1cccc2ccccc12)C1CCCC1 (centres unmarked) [Entry 181, N-cyclopentyl-N-(2-{5-methyl-3-[2-(piperidin-3-ylamino)pyridin-4-yl]-1H-1,2,4-triazol-1-yl}ethyl)-2-naphthalen-1-ylacetamide] | 50 to 1000
Cc1nc(-c2ccnc(N[C@@H]3CCNC3)c2)nn1CCN(C(=O)Cc1cccc2ccccc12)C1CCCC1 [Entry 182, N-cyclopentyl-N-[2-(5-methyl-3-{2-[(3R)-pyrrolidin-3-ylamino]pyridin-4-yl}-1H-1,2,4-triazol-1-yl)ethyl]-2-naphthalen-1-ylacetamide] | 50 to 1000
Cc1nc(-c2ccnc(NCCN3CCCCC3)n2)nn1CCN(C(=O)Cc1cccc2ccccc12)C1CCCC1 [Entry 183, N-cyclopentyl-N-[2-(5-methyl-3-{2-[(2-piperidin-1-ylethyl)amino]pyrimidin-4-yl}-1H-1,2,4-triazol-1-yl)ethyl]-2-naphthalen-1-ylacetamide] | < 50
Cc1nc(-c2ccnc(NCc3ccccc3)n2)nn1CCN(C(=O)Cc1cccc2ccccc12)C1CCCC1 [Entry 184, N-cyclopentyl-N-[2-(5-methyl-3-{2-[(phenylmethyl)amino]pyrimidin-4-yl}-1H-1,2,4-triazol-1-yl)ethyl]-2-naphthalen-1-ylacetamide] | 50 to 1000
Cc1nc(-c2cc(N)nc(Cl)c2)nn1CCN(C(=O)Cc1cccc2ccccc12)C1CCCC1 [Entry 185, N-{2-[3-(2-amino-6-chloropyridin-4-yl)-5-methyl-1H-1,2,4-triazol-1-yl]ethyl}-N-cyclopentyl-2-naphthalen-1-ylacetamide] | 50 to 1000
Cc1nc(-c2cc(N)nc(N)c2)nn1CCN(C(=O)Cc1cccc2ccccc12)C1CCCC1 [Entry 186, N-cyclopentyl-N-{2-[3-(2,6-diaminopyridin-4-yl)-5-methyl-1H-1,2,4-triazol-1-yl]ethyl}-2-naphthalen-1-ylacetamide] | 50 to 1000
CCOc1cc(-c2nc(C)n(CCN(C(=O)Cc3cccc4ccccc34)C3CCCC3)n2)cc(N)n1 [Entry 187, N-(2-{3-[2-amino-6-(ethyloxy)pyridin-4-yl]-5-methyl-1H-1,2,4-triazol-1-yl}ethyl)-N-cyclopentyl-2-naphthalen-1-ylacetamide] | 1000 to 10000
